Data taken from ChEMBL document CHEMBL3593238, “Selenorhodamine photosensitizers with the Texas-red core for photodynamic therapy of cancer cells” (Bioorg Med Chem, 2015).
Calls of active or inactive are those of the source. No cut-off for these calls is given here.

Experiments:
[1] = Ratio of LD50 for dark toxicity in mouse Colon 26 cells to EC50 for photo-toxicity in mouse Colon 26 cells at 15 Jcm'-2 of continuous illumination with 630 +/- 2 nm laser light; type: cell-based; settings: read-out: Ratio LD50/EC50
[2] = Dark toxicity in mouse Colon 26 cells expressing p-glycoprotein assessed as cell viability incubated for 1 hr followed by incubated for 48 hrs in fresh medium by sulforhodamine B assay; type: cell-based; settings: read-out: LD50
[3] = system: Colon 26; assay: Photo-toxicity in mouse Colon 26 cells assessed as cell viability at 0.5 Jcm'-2 of continuous illumination with 630 +/- 2 nm laser light incubated for 48 hrs by sulforhodamine B assay; type: functional, cell-based; settings: for EC50: Colon 26, 48 h
[4] = system: Colon 26; assay: Photo-toxicity in mouse Colon 26 cells assessed as cell viability at 1 Jcm'-2 of continuous illumination with 630 +/- 2 nm laser light incubated for 48 hrs by sulforhodamine B assay; type: functional, cell-based; settings: for EC50: Colon 26, 48 h
[5] = system: Colon 26; assay: Drug uptake in mouse Colon 26 cells expressing p-glycoprotein at 2 x 10^-7 M after 15 mins by flow cytometry in presence of 1 x 10^-4 M of verapamil; type: ADME, cell-based; settings: colon 26, 0.25 h, 0.2 µM
[6] = system: Colon 26; assay: Drug uptake in mouse Colon 26 cells expressing p-glycoprotein at 2 x 10^-7 M after 15 mins by flow cytometry in absence of verapamil; type: ADME, cell-based; settings: colon 26, 0.25 h, 0.2 µM
[7] = system: Colon 26; assay: Photo-toxicity in mouse Colon 26 cells assessed as cell viability up to 5 Jcm'-2 of continuous illumination with 630 +/- 2 nm laser light incubated for 48 hrs by sulforhodamine B assay; type: functional, cell-based; settings: Colon 26, 48 h
[8] = Cellular uptake in mitochondria of mouse Colon 26 cells expressing p-glycoprotein using MitoTracker Green after 15 mins by flow cytometry; type: ADME; settings: colon 26, 0.25 h
[9] = Ratio of LD50 for dark toxicity in mouse Colon 26 cells to EC50 for photo-toxicity in mouse Colon 26 cells at 1 Jcm'-2 of continuous illumination with 630 +/- 2 nm laser light; type: cell-based; settings: read-out: Ratio LD50/EC50
[10] = n-Octanol-water partition coefficient, log P of the compound at pH 7.4 by shake flask method; type: physicochemical

## CN(C)c1ccc(-c2cc(-c3ccc(N)cc3)[se+]c(-c3ccc(N)cc3)c2)cc1
[1]
  selectivity ratio: 3.8

## CN(C)c1ccc(-c2cc(-c3ccccc3)[se+]c(-c3ccc(N)cc3)c2)cc1
[2]
  CC50 at 1 h: 2600 nM
[1]
  selectivity ratio: 13

## CN(C)c1ccc(-c2cc(-c3ccccc3)[s+]c(-c3ccc(N)cc3)c2)cc1
[3]
  Activity: inactive
[4]
  Activity: inactive
[2]
  CC50 at 1 h: 70 nM

## S=C(c1ccc(C2=c3cc4c5c(c3[Se]c3c2cc2c6c3CCCN6CCC2)CCC[N+]=5CCC4)s1)N1CCCCC1.[Cl-]
[3]
  EC50: 56 nM
[5]
  fold change (FC): 2.9
[4]
  EC50: 29 nM
[6]
  Drug uptake: Active
[7]
  EC50: 50 nM
[2]
  CC50 at 1 h: 1530 nM
[8]
  Drug uptake: Active
[9]
  selectivity ratio: 53
[10]
  logD: 4.1

## O=C(c1ccc(C2=c3cc4c5c(c3[Se]c3c2cc2c6c3CCCN6CCC2)CCC[N+]=5CCC4)s1)N1CCCCC1.[Cl-]
[3]
  EC50: 79 nM
[5]
  fold change (FC): 7.6
[4]
  EC50: 38.8 nM
[6]
  Drug uptake: Active
[7]
  EC50: 50 nM
[2]
  CC50 at 1 h: 2240 nM
[8]
  Drug uptake: Active
[9]
  selectivity ratio: 58
[10]
  logD: 3.71
